According to patent publication US9791443B2, “Method for differentially quantifying naturally processed HLA-restricted peptides for cancer, autoimmune and infectious diseases immunotherapy development” (IMMATICS BIOTECHNOLOGIES GMBH, priority 2010, dated 2017):

Tested on: CD8+ T cells
Test: In vitro immunogenicity: priming of CD8+ T cells with pMHC/anti-CD28 coated beads (aAPC), A*2402 multimer staining
Type: cell-based, human
Conditions: HLA-A*24 healthy donors, three stimulation cycles; for Positive donors/donors tested [%]: positive among evaluable donors, at least two donors evaluable per peptide; for Positive wells/wells tested [%]: positive among evaluable wells, at least 24 wells evaluable per peptide
Excerpt: To get information regarding the immunogenicity of the TUMAPs of the present invention, we performed investigations using a well established in vitro stimulation platform already described by (Walter, S, Herrgen, L, Schoor, O, Jung, G, Wernet, D, Buhring, H J, Rammensee, H G, and Stevanovic, S; 2003, Cutting edge: predetermined avidity of human CD8 T cells expanded on calibrated MHC/anti-CD28-coated microspheres, J. Immunol., 171, 4974-4978).
In order to perform in vitro stimulations by artificial antigen presenting cells (aAPC) loaded with peptide-MHC complex (pMHC) and anti-CD28 antibody, we first isolated CD8 T cells from fresh HLA-A*24 leukapheresis products of healthy donors obtained from the Blood Bank Tuebingen.
CD8 T cells were either directly enriched from the leukapheresis product or PBMCs (peripheral blood mononuclear cells) were isolated first by using standard gradient separation medium (PAA, Cölbe, Germany). Isolated CD8 lymphocytes or PBMCs were incubated until use in T-cell medium (TCM) consisting of RPMI-Glutamax (Invitrogen, Karlsruhe, Germany) supplemented with 10% heat inactivated human AB serum (PAN-Biotech, Aidenbach, Germany), 100 U/ml Penicillin/100 μg/ml Streptomycin (Cambrex, Cologne, Germany), 1 mM sodium pyruvate (CC Pro, Oberdorla, Germany), 20 μg/ml Gentamycin (Cambrex). 2.5 ng/ml IL-7 (PromoCell, Heidelberg, Germany) and 10 U/ml IL-2 (Novartis Pharma, Nürnberg, Germany) were also added to the TCM at this step. Isolation of CD8+ lymphocytes was performed by positive selection using CD8 MicroBeads (Miltenyi Biotec, Bergisch-Gladbach, Germany).
Generation of pMHC/anti-CD28 coated beads, T-cell stimulations and readout was performed as described before (Walter et al. 4974-78) with minor modifications. Briefly, biotinylated peptide-loaded recombinant HLA-A*2402 molecules lacking the transmembrane domain and biotinylated at the carboxy terminus of the heavy chain were produced. The purified costimulatory mouse IgG2a anti human CD28 Ab 9.3 (Jung, Ledbetter, and Muller-Eberhard 4611-15) was chemically biotinylated using Sulfo-N-hydroxysuccinimidobiotin as recommended by the manufacturer (Perbio, Bonn, Germany).
800.000 beads/200 μl were coated in 96-well plates in the presence of 600 ng biotin anti-CD28 plus 200 ng relevant biotin-pMHC (high density beads). Stimulations were initiated in 96-well plates by co-incubating 1×10^6 CD8+ T cells with 2×10^5 washed coated beads in 200 μl TCM supplemented with 5 ng/ml IL-12 (PromoCell) for 3-4 days at 37° C. Half of the medium was then exchanged by fresh TCM supplemented with 80 U/ml IL-2 and incubating was continued for 3-4 days at 37° C. This stimulation cycle was performed for a total of three times. Finally, multimeric analyses were performed by staining the cells with Live/dead-Aqua dye (Invitrogen, Karlsruhe, Germany), CD8-FITC antibody clone SK1 (BD, Heidelberg, Germany) and PE- or APC-coupled A*2402 MHC multimers. For analysis, a BD LSRII SORP cytometer equipped with appropriate lasers and filters was used. Peptide specific cells were calculated as percentage of total CD8+ cells. Evaluation of multimeric analysis was done using the FlowJo software (Tree Star, Oregon, USA). In vitro priming of specific multimer+ CD8+ lymphocytes was detected by appropriate gating and by comparing to negative control stimulations.

Sequence: IYNGKLFDLL (listed as Homo sapiens) [KIF2C-001]
- Positive donors/donors tested [%]: 13%
- Positive wells/wells tested [%]: 2%

Sequence: NYEETFPHI (listed as Homo sapiens) [MUC6-001]
- Positive donors/donors tested [%]: 50%
- Positive wells/wells tested [%]: 21%

Sequence: AYLVYTDRL (listed as Homo sapiens) [PPAP2C-001]
- Positive donors/donors tested [%]: 100%
- Positive wells/wells tested [%]: 54%

Sequence: KYNDTFWKEF (listed as Homo sapiens) [HSP90B1-001]
- Positive donors/donors tested [%]: 50%
- Positive wells/wells tested [%]: 4%

Sequence: SYNPLWLRI (listed as Homo sapiens) [ASPM-002]
- Positive donors/donors tested [%]: 63%
- Positive wells/wells tested [%]: 31%

Sequence: VYIEKNDKL (listed as Homo sapiens) [ERBB3-001]
- Positive donors/donors tested [%]: 83%
- Positive wells/wells tested [%]: 15%

Sequence: YYNAAGFNKL (listed as Homo sapiens) [UQCRB-001]
- Positive donors/donors tested [%]: 100%
- Positive wells/wells tested [%]: 38%

Sequence: AYAIIKEEL (listed as Homo sapiens) [ATAD2-001]
- Positive donors/donors tested [%]: 50%
- Positive wells/wells tested [%]: 4%

Sequence: NYLLYVSNF [MMP11-001]
- Positive donors/donors tested [%]: 33%
- Positive wells/wells tested [%]: 11%

Sequence: SYIDVLPEF (listed as Homo sapiens) [MET-006]
- Positive donors/donors tested [%]: 63%
- Positive wells/wells tested [%]: 22%

Sequence: RFLSGIINF (listed as Homo sapiens) [NUF2-002]
- Positive donors/donors tested [%]: 50%
- Positive wells/wells tested [%]: 4%

Sequence: QYASRFVQL (listed as Homo sapiens) [PLK4-001]
- Positive donors/donors tested [%]: 60%
- Positive wells/wells tested [%]: 5%

Sequence: FYISPVNKL (listed as Homo sapiens) [AVL9-001]
- Positive donors/donors tested [%]: 100%
- Positive wells/wells tested [%]: 50%

Sequence: VYGIRLEHF (listed as Homo sapiens) [NUF2-001]
- Positive donors/donors tested [%]: 100%
- Positive wells/wells tested [%]: 25%

Sequence: TYGNLLDYL (listed as Homo sapiens) [ABL1-001]
- Positive donors/donors tested [%]: 50%
- Positive wells/wells tested [%]: 13%

Sequence: VYKVVGNLL (listed as Homo sapiens) [IQGAP3-001]
- Positive donors/donors tested [%]: 100%
- Positive wells/wells tested [%]: 24%

Sequence: NYLLYVSNF [MST1R-001] (listed as Homo sapiens)
- Positive donors/donors tested [%]: 50%
- Positive wells/wells tested [%]: 14%

Sequence: HYKPTPLYF (listed as Homo sapiens) [SMC4-001]
- Positive donors/donors tested [%]: 75%
- Positive wells/wells tested [%]: 9%

Sequence: VFDTAIAHLF (listed as Homo sapiens) [SIAH2-001]
- Positive donors/donors tested [%]: 50%
- Positive wells/wells tested [%]: 4%

Sequence: VWSDVTPLTF [PROM1-001]
- Positive donors/donors tested [%]: 83%
- Positive wells/wells tested [%]: 26%

Sequence: LYQILQGIVF (listed as Homo sapiens) [CDC2-001]
- Positive donors/donors tested [%]: 88%
- Positive wells/wells tested [%]: 28%

Sequence: VYTTSYQQI (listed as Homo sapiens) [NFYB-001]
- Positive donors/donors tested [%]: 50%
- Positive wells/wells tested [%]: 7%

Sequence: RYLWATVTI (listed as Homo sapiens) [ASPM-001]
- Positive donors/donors tested [%]: 17%
- Positive wells/wells tested [%]: 3%

Sequence: VFIFKGNQF (listed as Homo sapiens) [MMP3-001]
- Positive donors/donors tested [%]: 13%
- Positive wells/wells tested [%]: 1%

Sequence: NYLPFIMEL (listed as Homo sapiens) [UCHL5-001]
- Positive donors/donors tested [%]: 75%
- Positive wells/wells tested [%]: 14%
